Source: paper PMC6150381, “Design, Synthesis, and Biological Evaluation of N,N-Disubstituted-4-arylthiazole-2-methylamine Derivatives as Cholesteryl Ester Transfer Inhibitors” (Molecules : A Journal of Synthetic Chemistry and Natural …, 2017)

How the values were obtained:
recombinant CETP = target: T1, recombinant CETP (Homo sapiens, UniProt P11597); test: In vitro CETP inhibitory assay (BODIPY-CE fluorescence assay, CETP RP Activity Assay Kit); assay type: biochemical; conditions: for IC50: CETP inhibition, eight-point titration, each concentration tested three times
T1 construct: purchased Roar, New York, NY, USA RB-RPAK
T1 sequence (P11597 18-493): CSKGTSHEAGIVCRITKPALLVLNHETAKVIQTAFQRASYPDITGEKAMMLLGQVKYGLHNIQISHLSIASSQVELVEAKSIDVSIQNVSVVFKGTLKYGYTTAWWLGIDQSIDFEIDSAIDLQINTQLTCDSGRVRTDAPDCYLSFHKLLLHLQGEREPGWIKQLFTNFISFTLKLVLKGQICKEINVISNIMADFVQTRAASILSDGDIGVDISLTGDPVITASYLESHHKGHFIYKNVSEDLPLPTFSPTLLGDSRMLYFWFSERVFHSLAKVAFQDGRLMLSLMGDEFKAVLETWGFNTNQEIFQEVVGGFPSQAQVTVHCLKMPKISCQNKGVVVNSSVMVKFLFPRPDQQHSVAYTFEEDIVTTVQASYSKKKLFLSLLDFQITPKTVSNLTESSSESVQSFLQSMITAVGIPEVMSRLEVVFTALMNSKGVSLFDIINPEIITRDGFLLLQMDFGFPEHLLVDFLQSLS
Protocol: The IC50 was determined from a curve fit of the data with each concentration tested three times.

| Compound | melting point | IC50 (recombinant CETP) | decrease of activity on replacing the nitro group at the 4-position of ring B (recombinant CETP; compared with the 4-nitro compound (30)) |
| --- | --- | --- | --- |
| Fc1ccc(CN(Cc2nnc(-c3ccccc3)o2)c2cccc(Oc3ccccc3)c2)cc1 [Compound 17e, N-(4-Fluorobenzyl)-3-phenoxy-N-((5-phenyl-1,3,4-oxadiazol-2-yl)methyl)aniline] | 97.3 to 98.2 °C | 26.9 ± 0.35 µM |  |
| COc1ccc(N(Cc2ccc(F)cc2)Cc2nc(-c3ccc(F)cc3)cs2)cc1OC [Compound 31, N-(4-Fluorobenzyl)-N-((4-(4-fluorophenyl)thiazol-2-yl)methyl)-3,4-dimethoxyaniline] |  | 2.46 ± 0.06 µM |  |
| COc1ccc(N(Cc2ccc(F)cc2)Cc2nc(-c3ccc(NC(=O)C(F)(F)F)cc3)cs2)cc1OC [Compound 45, N-(4-(2-(((3,4-Dimethoxyphenyl)(4-fluorobenzyl)amino)methyl)thiazol-4-yl)phenyl)-2,2,2-trifluoroacetamide] | 143.6 to 145.8 °C | 15.3 ± 0.17 µM |  |
| Fc1ccc(CN(Cc2nc3ccccc3[nH]2)c2cccc(Oc3ccccc3)c2)cc1 [Compound 17f, N-((1H-Benzo[d]imidazol-2-yl)methyl)-N-(4-fluorobenzyl)-3-phenoxyaniline] |  | 13.7 ± 0.63 µM |  |
| COc1ccc(N(Cc2ccc(F)cc2)Cc2nc(-c3ccc(-c4c(C)noc4C)cc3)cs2)cc1OC [Compound 38, N-((4-(4-(3,5-Dimethylisoxazol-4-yl)phenyl)thiazol-2-yl)methyl)-N-(4-fluorobenzyl)-3,4-dimethoxyaniline] | 69 to 69.8 °C | 7.57 ± 0.1 µM |  |
| COc1ccc(N(Cc2ccc(F)cc2)Cc2nc(-c3ccc(NC(C)=O)cc3)cs2)cc1OC [Compound 46, N-(4-(2-(((3,4-Dimethoxyphenyl)(4-fluorobenzyl)amino)methyl)thiazol-4-yl)phenyl)acetamide] | 134.6 to 137 °C | > 50 µM |  |
| Fc1ccc(CN(Cc2nc3ccccc3o2)c2cccc(Oc3ccccc3)c2)cc1 [Compound 17g, N-(Benzo[d]oxazol-2-ylmethyl)-N-(4-fluorobenzyl)-3-phenoxyaniline] |  | 15.2 ± 0.52 µM |  |
| Cc1cc(CN(Cc2ccc(F)cc2)c2cccc(Oc3ccccc3)c2)nn1-c1ccccc1 [Compound 17c, N-(4-Fluorobenzyl)-N-((5-methyl-1-phenyl-1H-pyrazol-3-yl)methyl)-3-phenoxyaniline] |  | 17.1 ± 0.44 µM |  |
| COc1ccc(N(Cc2ccc(F)cc2)Cc2nc(-c3ccc(Br)cc3)cs2)cc1OC [Compound 36, N-((4-(4-Bromophenyl)thiazol-2-yl)methyl)-N-(4-fluorobenzyl)-3,4-dimethoxyaniline] |  | 8.96 ± 0.15 µM |  |
| COc1ccc(N(Cc2ccc(F)cc2)Cc2nc(-c3ccc(C)cc3)cs2)cc1OC [Compound 42, N-(4-Fluorobenzyl)-3,4-dimethoxy-N-((4-(p-tolyl)thiazol-2-yl)methyl)aniline] | 105.3 to 107 °C | 14 ± 0.21 µM |  |
| COc1ccc(N(Cc2ccc(F)cc2)Cc2nc(-c3ccc(-c4cnn(C)c4)cc3)cs2)cc1OC [Compound 37, N-(4-Fluorobenzyl)-3,4-dimethoxy-N-((4-(4-(1-methyl-1H-pyrazol-4-yl)phenyl)thiazol-2-yl)methyl)aniline] | 126.1 to 130.3 °C | 4.02 ± 0.05 µM |  |
| COc1ccc(N(Cc2ccc(F)cc2)Cc2nc(-c3ccc(N4CCOCC4)cc3)cs2)cc1OC [Compound 49, N-(4-Fluorobenzyl)-3,4-dimethoxy-N-((4-(4-morpholinophenyl)thiazol-2-yl)methyl)aniline] | 139 to 140.4 °C | > 50 µM |  |
| Fc1ccc(CN(Cc2ncc(-c3ccccc3)o2)c2cccc(Oc3ccccc3)c2)cc1 [Compound 17a, N-(4-Fluorobenzyl)-3-phenoxy-N-((5-phenyloxazol-2-yl)methyl)aniline] | 81 to 82.4 °C | 25.7 ± 0.41 µM |  |
| COc1ccc(N(Cc2ccc(F)cc2)Cc2nc(-c3ccc(-c4ccnn4C)cc3)cs2)cc1OC [Compound 39, N-(4-Fluorobenzyl)-3,4-dimethoxy-N-((4-(4-(1-methyl-1H-pyrazol-5-yl)phenyl)thiazol-2-yl)methyl)aniline] | 102.4 to 103.3 °C | 6.38 ± 0.09 µM |  |
| COC(=O)CNc1ccc(-c2csc(CN(Cc3ccc(F)cc3)c3ccc(OC)c(OC)c3)n2)cc1 [Compound 47, Methyl(4-(2-(((3,4-dimethoxyphenyl)(4-fluorobenzyl)amino)methyl)thiazol-4-yl)phenyl)glycinate] | 103.5 to 105.4 °C | 3.54 ± 0.03 µM |  |
| CCOC(=O)CCCOc1ccc(-c2csc(CN(Cc3ccc(F)cc3)c3ccc(OC)c(OC)c3)n2)cc1 [Compound 48, Ethyl-4-(4-(2-(((3,4-dimethoxyphenyl)(4-fluorobenzyl)amino)methyl)thiazol-4-yl)phenoxy)butanoate] |  | 8.4 ± 0.04 µM | ~10 fold |
| COc1ccc(N(Cc2ccc(F)cc2)Cc2nc(-c3ccc(C#N)cc3)cs2)cc1OC [Compound 33, 4-(2-(((3,4-Dimethoxyphenyl)(4-fluorobenzyl)amino)methyl)thiazol-4-yl)benzonitrile] | 105.4 to 106.6 °C | 1.5 ± 0.03 µM |  |

Next, values leading:

| melting point | IC50 (recombinant CETP) | decrease of activity on replacing the nitro group at the 4-position of ring B (recombinant CETP; compared with the 4-nitro compound (30)) | Compound |
| --- | --- | --- | --- |
|  | 6.36 ± 0.12 µM |  | COc1ccc(N(Cc2ccc(F)cc2)Cc2nc(-c3ccccc3[N+](=O)[O-])cs2)cc1OC [Compound 35, N-(4-Fluorobenzyl)-3,4-dimethoxy-N-((4-(2-nitrophenyl)thiazol-2-yl)methyl)aniline] |
| 107 to 108.4 °C | 13.8 ± 0.14 µM |  | O=[N+]([O-])c1ccc(-c2csc(CN(Cc3ccc(F)cc3)c3cccc(C(F)(F)F)c3)n2)cc1 [Compound 24, N-(4-Fluorobenzyl)-N-((4-(4-nitrophenyl)thiazol-2-yl)methyl)-3-(trifluoromethyl)aniline] |
|  | 3.51 ± 0.06 µM |  | COc1ccc(N(Cc2ccc(F)cc2)Cc2nc(-c3ccc4ccccc4c3)cs2)cc1OC [Compound 41, N-(4-Fluorobenzyl)-3,4-dimethoxy-N-((4-(naphthalen-2-yl)thiazol-2-yl)methyl)aniline] |
| 164.5 to 166.2 °C | 9.55 ± 0.08 µM |  | O=[N+]([O-])c1ccc(-c2csc(CN(Cc3ccc(F)cc3)c3ccc(-c4ccccc4)cc3)n2)cc1 [Compound 25, N-(4-Fluorobenzyl)-N-((4-(4-nitrophenyl)thiazol-2-yl)methyl)-[1,1′-biphenyl]-4-amine] |
| 120.5 to 121.6 °C | 1.38 ± 0.07 µM |  | COc1ccc(N(Cc2ccc(F)cc2)Cc2nc(-c3cccc([N+](=O)[O-])c3)cs2)cc1OC [Compound 34, N-(4-Fluorobenzyl)-3,4-dimethoxy-N-((4-(3-nitrophenyl)thiazol-2-yl)methyl)aniline] |
|  | 31.69 ± 0.25 µM |  | O=[N+]([O-])c1ccc(-c2csc(CN(Cc3ccc(F)cc3)c3cccc(OC(F)(F)F)c3)n2)cc1 [Compound 23, N-(4-Fluorobenzyl)-N-((4-(4-nitrophenyl)thiazol-2-yl)methyl)-3-(trifluoromethoxy)aniline] |
|  | 3.58 ± 0.03 µM |  | COc1ccc(N(Cc2ccc(F)cc2)Cc2nc(-c3ccccc3)cs2)cc1OC [Compound 22, N-(4-Fluorobenzyl)-3,4-dimethoxy-N-((4-phenylthiazol-2-yl)methyl)aniline] |
| 90.5 to 92.5 °C | 10.6 ± 0.32 µM |  | Fc1ccc(CN(Cc2ncc(-c3ccccc3)s2)c2cccc(Oc3ccccc3)c2)cc1 [Compound 17b, N-(4-Fluorobenzyl)-3-phenoxy-N-((5-phenylthiazol-2-yl)methyl)aniline] |
|  | 24.56 ± 0.22 µM |  | Cn1nccc1-c1cccc(N(Cc2ccc(F)cc2)Cc2nc(-c3ccc([N+](=O)[O-])cc3)cs2)c1 [Compound 29, N-(4-Fluorobenzyl)-3-(1-methyl-1H-pyrazol-5-yl)-N-((4-(4-nitrophenyl)thiazol-2-yl)methyl)aniline] |
|  | 9.03 ± 0.21 µM |  | Fc1ccc(CN(Cc2nc(-c3ccccc3)cs2)c2cccc(Oc3ccccc3)c2)cc1 [Compound 17d, N-(4-Fluorobenzyl)-3-phenoxy-N-((4-phenylthiazol-2-yl)methyl)aniline] |
|  | 1.02 ± 0.01 µM |  | O=[N+]([O-])c1ccc(-c2csc(CN(Cc3ccc(F)cc3)c3ccccc3-c3ccccc3)n2)cc1 [Compound 27, N-(4-Fluorobenzyl)-N-((4-(4-nitrophenyl)thiazol-2-yl)methyl)-[1,1′-biphenyl]-2-amine] |
| 115.8 to 119 °C | 6.03 ± 0.04 µM |  | COc1ccc(N(Cc2ccc(F)cc2)Cc2nc(-c3ccc(-c4cccs4)cc3)cs2)cc1OC [Compound 40, N-(4-Fluorobenzyl)-3,4-dimethoxy-N-((4-(4-(thiophen-2-yl)phenyl)thiazol-2-yl)methyl)aniline] |
|  | 13.96 ± 0.11 µM |  | COc1cccc(N(Cc2ccc(F)cc2)Cc2nc(-c3ccccc3)cs2)c1 [Compound 21, N-(4-Fluorobenzyl)-3-methoxy-N-((4-phenylthiazol-2-yl)methyl)aniline] |
| 143.9 to 148.8 °C | 7.77 ± 0.13 µM |  | O=[N+]([O-])c1ccc(-c2csc(CN(Cc3ccc(F)cc3)c3cccc(-c4cccs4)c3)n2)cc1 [Compound 28, N-(4-Fluorobenzyl)-N-((4-(4-nitrophenyl)thiazol-2-yl)methyl)-3-(thiophen-2-yl)aniline] |
| 149.5 to 150.8 °C | 8.98 ± 0.05 µM |  | O=[N+]([O-])c1ccc(-c2csc(CN(Cc3ccc(F)cc3)c3cccc(-c4ccccc4)c3)n2)cc1 [Compound 26, N-(4-Fluorobenzyl)-N-((4-(4-nitrophenyl)thiazol-2-yl)methyl)-[1,1′-biphenyl]-3-amine] |
